What was measured:
Assay type in all cases: cell-based
KGF = assay: Relative excretion of KGF (ELISA) in organotypic hair follicle cell cultures; details: 72 hours, untreated = 100
Excerpt: (§1) L-Carnitine and L-carnitine tartrate were investigated with regard to their effects on ATP synthesis the excretion of the growth factors HGF (hepatocyte growth factors) and KGF (keratinocyte growth factor). ATP (adenosine triphosphate) is the universal storage form for chemical energy in cells. Release of the phosphate groups yields ADP and Pi (inorganic phosphate). This reaction is highly exergonic, i.e. energy is released. ATP is produced in the cellular oxidative breakdown of fats, carbohydrates, and proteins. It serves as an energy supply for biochemical syntheses (including melanin synthesis), for transport operations (active transport), and for mechanical work. These processes are endergonic, i.e. they proceed only when energy is delivered. HGF and KGF are important growth factors with which the dermal papilla controls hair growth and the hair cycle, to which pigment production in the hair follicle is linked in particular fashion. Melanin formation takes place exclusively in the anagen phase of the hair cycle. […]
(§2) The excretion of HGF and KGF can be quantified with the aid of a commercially obtainable ELISA kit. For this, organotypic hair follicle cell cultures made up of dermal papilla cells, hair follicle melanocytes, and outer root sheath keratinocytes are incubated for 72 hours with carnitine tartrate, and the concentration of HGF and KGF in the medium is determined.

[1] = tested on: organotypic cell cultures made up of three-dimensionally cultivated dermal papilla cells; assay: ATP content in hair follicle cell cultures (ATPlite-M assay); details: 24 hours, untreated = 100
Excerpt: L-Carnitine and L-carnitine tartrate were investigated with regard to their effects on ATP synthesis the excretion of the growth factors HGF (hepatocyte growth factors) and KGF (keratinocyte growth factor). ATP (adenosine triphosphate) is the universal storage form for chemical energy in cells. Release of the phosphate groups yields ADP and Pi (inorganic phosphate). This reaction is highly exergonic, i.e. energy is released. ATP is produced in the cellular oxidative breakdown of fats, carbohydrates, and proteins. It serves as an energy supply for biochemical syntheses (including melanin synthesis), for transport operations (active transport), and for mechanical work. These processes are endergonic, i.e. they proceed only when energy is delivered. HGF and KGF are important growth factors with which the dermal papilla controls hair growth and the hair cycle, to which pigment production in the hair follicle is linked in particular fashion. Melanin formation takes place exclusively in the anagen phase of the hair cycle. In addition, a variety of publications have discussed the effect of HGF on DNA synthesis, on growth, and on the differentiation of melanocytes.
The ATP determination was performed using the ATPlite™-M assay (Packard). The test principle of this assay is based on the fact that the luciferase of Photinus pyralis catalyzes a reaction in which D-luciferin is converted into oxyluciferin in the presence of ATP. This reaction causes the emission of green light, which can be measured with a luminometer. The emitted bioluminescent light is proportional to the quantity of ATP present.
The ATP activity determination was performed in organotypic cell cultures made up of three-dimensionally cultivated dermal papilla cells. The treatment with carnitine and carnitine tartrate occurred over 24 hours, against an untreated control.

HGF = assay: Relative excretion of HGF (ELISA) in organotypic hair follicle cell cultures; details: 72 hours, untreated = 100
Excerpt: as §1, §2

gp100 = assay: Differential gene expression by quantitative RT-PCR in organotypic hair follicle cell cultures: gp100; details: 48 h incubation, untreated control = 1
Excerpt: Gp100 is a protein that occurs in the membrane of melanosomes and stabilizes it. Because more melanin is produced in the cells after the application of substances that positively influence melanogenesis, an increase also occurs in the number of melanosomes required for transport. A substance that induces the gene expression of gp100 is therefore a pigmentation-stimulating active substance. A determination of the extent of the change in gene expression after an application of such substances onto suitable cells/cell systems/tissue cultures can provide information regarding the efficacy of the active substance. Differential gene expression was determined by means of quantitative RT-PCR. After three-dimensional organotypic hair follicle cell cultures from dermal papilla cells had been produced on microcarriers, the latter were incubated for 48 h with dihydroquercetin in two different concentrations. In order to carry out the PCR, firstly the RNA was isolated from the organotypic cell cultures using the RNeasy Mini Kit of the Qiagen company, and it was transcribed into cDNA by reverse transcription. In the context of the subsequent PCR reaction, which was carried out using gene-specific primers for the respective genes and which serves to amplify the desired gene segments, formation of the PCR products was detected online by way of a fluorescence signal, which is proportional to the quantity of PCR product formed. The stronger the expression of a specific gene, the greater the quantity of PCR product formed, and the higher the fluorescence signal. The quantify the gene expression, the untreated control was set to equal 1, and expression of the genes to be determined was referred to it (X-times expression). […] Values that are greater than or equal to 1.5 times the expression, or less than or equal to 0.7 times the expression, of the untreated control are classified as tending toward differential expression.

[2] = tested on: MCR1 (melanocortin receptor 1); assay: Differential gene expression by quantitative RT-PCR in organotypic hair follicle cell cultures: MCR1; details: 48 h incubation, untreated control = 1
Excerpt: Ligands participating in melanogenesis, such as SCF or alpha-MSH (melanocyte stimulating hormone alpha), bind to a variety of receptors by means of which the corresponding signal is delivered into the interior of the cell. The receptor for SCF is ckit, the receptor for alpha-MSH is MCR-1 (melanocortin receptor 1). Those substances that bring about a change in the expression of MCR-1 and/or ckit can influence melanogenesis. In the case of an induction (upregulation or stimulation) of the gene expression of the corresponding receptors, a stimulation of melanogenesis is to be assumed. A determination of the extent of the change in gene expression after an application of such substances onto suitable cells/cell systems/tissue cultures can provide information regarding the efficacy of the active substance. Differential gene expression was determined by means of quantitative RT-PCR. After three-dimensional organotypic hair follicle cell cultures from dermal papilla cells had been produced on microcarriers, the latter were incubated for 48 h with dihydroquercetin in two different concentrations. In order to carry out the PCR, firstly the RNA was isolated from the organotypic cell cultures using the RNeasy Mini Kit of the Qiagen company, and it was transcribed into cDNA by reverse transcription. In the context of the subsequent PCR reaction, which was carried out using gene-specific primers for the respective genes and which serves to amplify the desired gene segments, formation of the PCR products was detected online by way of a fluorescence signal, which is proportional to the quantity of PCR product formed. The stronger the expression of a specific gene, the greater the quantity of PCR product formed, and the higher the fluorescence signal. The quantify the gene expression, the untreated control was set to equal 1, and expression of the genes to be determined was referred to it (X-times expression). […] Values that are greater than or equal to 1.5 times the expression, or less than or equal to 0.7 times the expression, of the untreated control are classified as tending toward differential expression.

ckit = assay: Differential gene expression by quantitative RT-PCR in organotypic hair follicle cell cultures: ckit; details: 48 h incubation, untreated control = 1
Excerpt: Ligands participating in melanogenesis, such as SCF or alpha-MSH (melanocyte stimulating hormone alpha), bind to a variety of receptors by means of which the corresponding signal is delivered into the interior of the cell. The receptor for SCF is ckit, the receptor for alpha-MSH is MCR-1 (melanocortin receptor 1). Those substances that bring about a change in the expression of MCR-1 and/or ckit can influence melanogenesis. In the case of an induction (upregulation or stimulation) of the gene expression of the corresponding receptors, a stimulation of melanogenesis is to be assumed. A determination of the extent of the change in gene expression after an application of such substances onto suitable cells/cell systems/tissue cultures can provide information regarding the efficacy of the active substance. Differential gene expression was determined by means of quantitative RT-PCR. After three-dimensional organotypic hair follicle cell cultures from dermal papilla cells had been produced on microcarriers, the latter were incubated for 48 h with dihydroquercetin in two different concentrations. In order to carry out the PCR, firstly the RNA was isolated from the organotypic cell cultures using the RNeasy Mini Kit of the Qiagen company, and it was transcribed into cDNA by reverse transcription. In the context of the subsequent PCR reaction, which was carried out using gene-specific primers for the respective genes and which serves to amplify the desired gene segments, formation of the PCR products was detected online by way of a fluorescence signal, which is proportional to the quantity of PCR product formed. The stronger the expression of a specific gene, the greater the quantity of PCR product formed, and the higher the fluorescence signal. The quantify the gene expression, the untreated control was set to equal 1, and expression of the genes to be determined was referred to it (X-times expression). […]

[3] = tested on: three-dimensional organotypic hair follicle cell cultures made up of dermal papilla cells, hair follicle melanocytes, and outer root sheath keratinocytes; assay: Melanin content in hair follicle equivalents
Excerpt: Melanin is a dye that is produced and stored in the melanosomes of melanocytes. Melanin gives hair its actual color, the color being produced by a mixture of two types of melanin, eumelanin and pheomelanin. Melanogenesis is a complicated synthesis process regulated in many ways. Firstly, tyrosine is converted by the enzyme tyrosinase into L-dihydroxyphenylalanine (L-DOPA), and then via multiple intermediate steps into the various melanin pigments. An active substance that positively influences melanogenesis and results in an elevated melanin content in the hair follicle melanocytes is particularly suitable for influencing the natural pigmentation process of skin and/or skin appendages, preventing hair graying, and/or stimulating pigmentation.
To investigate the melanin content, three-dimensional organotypic hair follicle cell cultures made up of dermal papilla cells, hair follicle melanocytes, and outer root sheath keratinocytes were treated for 7 days with dihydroquercetin (10 μM and 100 μM). Untreated cell cultures served as controls. After 4 and 7 days the hair follicle equivalents were homogenized and the melanin was extracted for 45 minutes using NaOH (1M)+10% DMSO at 100° C. Aliquots of the samples were then transferred into a 96-well plate, and extinction at 492 nm was measured. The increase in melanin content from day 0 to day 7 was evaluated by referring all the values to the untreated control at day 7 (=100%).

[4] = 100 μM, listed as dihydroquercetin

With `C[N+](C)(C)C[C@H](O)CC(=O)[O-].O=C(O)C(O)C(O)C(=O)O` [Carnitine tartrate, L-carnitine tartrate] the “KGF (%) M, relative excretion” value (KGF; 0.005%) was 123%, the “ATP (%) M” value ([1]; 0.01%, listed as carnitine tartrate, tartrate) was “increase the ATP content in the treated cultures significantly” and the “ATP (%) M” value ([1]; 0.01%, tartrate) was 195%. For the same molecule, the “ATP (%) M” value ([1]; 0.05%) was 102% and the “HGF (%) M, relative excretion” value (HGF; 0.005%) was 141%.
With `C[N+](C)(C)CC(O)CC(=O)[O-]` (stereo not shown) [Carnitine, 3-hydroxy-4-(trimethylammonium)butyric acid betaine] the “KGF (%) M, relative excretion” value (KGF; 0.01%) was 120%, the “ATP (%) M” value ([1]; 0.05%) was 212% and the “ATP (%) M” value ([1]; 0.05%, listed as carnitine) was “increase the ATP content in the treated cultures significantly”. For the same molecule, the “ATP (%) M” value ([1]; 0.1%) was 160%, the “ATP (%) M” value ([1]; 0.1%, listed as carnitine) was “increase the ATP content in the treated cultures significantly” and the “HGF (%) M, relative excretion” value (HGF; 0.01%) was 105%.
`O=C1c2c(O)cc(O)cc2OC(c2ccc(O)c(O)c2)C1O` (stereo not shown) [Dihydroquercetin, 3,3′,4′,5,7-pentahydroxyflavanone] was tested, and the “gp100 expression M (X-times expression)” value (gp100; 10 μM) was 0.89, the “gp100 expression M (X-times expression)” value (gp100; 100 μM) was 3.48 and the “gp100 expression M (X-times expression)” value (gp100; [4]) was “induced”. The “MCR1 expression M (X-times expression)” value ([2]; 10 μM) was 2.56, the “MCR1 expression M (X-times expression)” value ([2]; 10 μM, listed as dihydroquercetin) was “significantly differentially expressed” and the “MCR1 expression M (X-times expression)” value ([2]; 100 μM) was 5.17. The “MCR1 expression M (X-times expression)” value [2, 4] was “induced”, the “ckit expression M (X-times expression)” value (ckit; 10 μM) was 1.32 and the “ckit expression M (X-times expression)” value (ckit; 100 μM) was 3.55. For the same molecule, the “ckit expression M (X-times expression)” value (ckit; [4]) was “induced”, the “Melanin content (%) M” value ([3]; 10 μM, d 4) was 100% and the “Melanin content (%) M” value ([3]; 10 μM, d 7, untreated d 7 = 181) was 254%. The “Melanin content (%) M” value ([3]; 100 μM, d 4) was 100% and the “Melanin content (%) M” value ([3]; 100 μM, d 7, untreated d 7 = 181) was 161%.

Reference: patent publication US20120115944A1, “USE OF CARNITINE AND DIHYDROQUERCITIN TO POSITIVELY INFLUENCE THE NATURAL PIGMENTATION PROCESS” (Henkel AG & Co., KGaA, priority 2009, published 2012)
